According to patent publication US20210278391A1, “COMPOSITIONS AND METHODS FOR TREATING CARDIOVASCULAR AND METABOLIC CONDITIONS” (The Regents of the University of California, priority 2017, published 2021):
Entries after “also recorded” stand apart in the source; their conditions may differ.

Legend:
[1] = Plasma BCKA/BCAA concentrations in wild-type and PP2Cm-KO mice; format: in vivo, mouse; conditions: BT2 vs vehicle
Experimental: (§1) PP2Cm germ-line knockout (PP2Cm-KO) mice were generated as previously described (Lu et al. (2009), supra). PP2Cm KO mice were backcrossed for more than 8 generations into a C57BL/6 background. Wild type C57BL/6 mice and PP2Cm KO mice were housed at 22° C. with a 12-hour light, 12-hour dark cycle with free access to water and standard chow. Studies were performed with male mice. Human cohorts of dilated cardiomyopathy and controls were obtained from Columbia and Duke with Institutional Review Board approval. […]
BCKA Measurements in mouse Plasma: The method published by Olson et al. (2013), supra was followed with modification. […] The samples were re-suspended in 50:50 MeOH:5 mM NH4 acetate and analyzed by LC-MS/MS using a Sciex 3200 Q-Trap coupled to a Shimadzu Prominence LC. An Agilent C18 XDB 5 micron packing column (50×4.6 mm) was used for chromatography with the following conditions: Buffer A: 5 mM NH4 acetate, Buffer B: methanol, 0-2.0 min 50% B, 2.0-2.5 min gradient to 100% B, 2.5-3.5 min 100% B, 3.5-3.6 min gradient to 50% B, 3.6-4.6 min 50% B. The derivatized keto acids were detected with the mass spectrometer in positive MRM (multiple reaction monitoring) mode using the following transitions: KIC 203.1 to 161.1 (retention time: 2.91 min); KIV 189.145 to 119.2 (retention time 2.84 min); KMV 203.065 to 174.2 (retention time 2.99 min); [^13C] […]

BCKD subunit E1α [2] = test: Western blot of phosphorylated E1α and BCKDK in heart post-TAC; format: in vivo, mouse
Experimental: Proteins from heart tissue were harvested in buffer (50 mM HEPES [pH7.4], 150 mM NaCl, 1% NP-40, 1 mM EDTA, 1 mM EGTA, 1 mM glycerophosphate, 2.5 mM sodium pyrophosphate 1 mM Na3VO4, 20 mM NaF, 1 mM phenylmethylsulfonyl fluoride, 1 μg/mL of aprotinin, leupeptin, and pepstatin). Samples were separated on 4-12% Bis-Tris gels (Invitrogen), and transferred onto a nitrocellulose blot (Amersham). The blot was probed with the indicated primary antibodies. Protein signals were detected using HRP conjugated secondary antibodies and enhanced chemiluminescence (ECL) western blotting detection regents (Pierce). Rabbit polyclonal antisera against the E1α subunits of BCKD complex and phosphor-E1α antibodies were purchased from Abcam. PP2Cm antibody was generated in the lab.

BCKD subunit E1α [3] = test: Immunoblot of phosphorylated BCKD subunit E1α in heart of BT2-treated mice; format: in vivo, mouse; conditions: wild-type mice, BT2 40 mg/kg/d oral gavage vs vehicle
Experimental: as §1, with “approval. All animal procedures were carried out in accordance with the guidelines and protocols approved by the University of California at Los Angeles Institutional Animal Care and Use Committee (IACUC). Transaortic constriction (TAC) and cardiac echocardiography were performed as reported earlier 17 on mice from different genotypes between 14 and 16 weeks of age.” for “approval.”
Proteins from heart tissue or cells were harvested in buffer (50 mM HEPES (pH7.4), 150 mM NaCl, 1% NP-40, 1 mM EDTA, 1 mM EGTA, 1 mM glycerophosphate, 2.5 mM sodium pyrophosphate, 1 mM Na3VO4, 20 mM NaF, 1 mM phenylmethylsulfonyl fluoride, 1 μg/mL of aprotinin, leupeptin, and pepstatin). […] Protein signals were detected using HRP conjugated secondary antibodies and enhanced chemiluminescence (ECL) western blotting detection regents (Pierce). […]

[4] = Plasma BCAA/BCKA in DIO mice treated with BT2; format: in vivo, mouse; conditions: BT2 40 mg/kg/day 8 weeks
Experimental: Animals were euthanized using carbon dioxide asphyxiation followed by cervical dislocation and then dissected. Blood was harvested by cardiac puncture and centrifuged to isolate plasma which was stored at −80° C. Acidified citrate dextrose was used as an anticoagulant. Immediately after blood collection, heart, liver, kidneys, and both hind leg quadriceps muscles were removed and snap frozen in liquid nitrogen.
The endogenous signal from blank plasma was subtracted from each point on the standard curve, and the data were plotted in GraphPad Prism. BCAA concentrations in treated samples were determined based on this standard curve.

[5] = Cardiac BCAA and BCKA assay post-TAC; format: in vivo, mouse; conditions: post-TAC heart, BT2 6 weeks
Experimental: BCAA and BCKA concentration in mouse heart tissue were determined by mass spectrometer using the following transition s: KIC 203.1 to 161.1 (retention time: 2.91 min); KIV 189.145 to 119.2 (retention time 2.84 min); KMV 203.065 to 174.2 (retention time 2.99 min); [^13C] KIV 194.109 to 120.1 (retention time: 2.84 min). Val 174.1/72.1 (retention time 3.2 min), Leu 188.1/86.1 (retention time 5.9 min), Ile 188.2/86.1 (retention time 5.7 min).

BCKD = BCKD activity in mouse cardiac tissue; format: in vivo; conditions: BT2 vs vehicle
Experimental: PP2Cm germ-line knockout (PP2Cm-KO) mice were generated as previously described (Lu et al. (2009), supra). PP2Cm KO mice were backcrossed for more than 8 generations into a C57BL/6 background. Wild type C57BL/6 mice and PP2Cm KO mice were housed at 22° C. with a 12-hour light, 12-hour dark cycle with free access to water and standard chow. Studies were performed with male mice. Human cohorts of dilated cardiomyopathy and controls were obtained from Columbia and Duke with Institutional Review Board approval. All animal procedures were carried out in accordance with the guidelines and protocols approved by the University of California at Los Angeles Institutional Animal Care and Use Committee (IACUC). Transaortic constriction (TAC) and cardiac echocardiography were performed as reported earlier 17 on mice from different genotypes between 14 and 16 weeks of age. […] Measurements of BCKD activity in mouse cardiac tissue and plasma BCKA/BCAA concentrations were performed as previously described (Tso et al. (2014), supra).

For O=C(O)c1sc2cc(Cl)ccc2c1Cl [BT2, 3,6-dichlorobenzo[b]thiophene-2-carboxylic acid], the “plasma BCAA level” value [1] was “modest impact; also recorded: reduced”, the “plasma BCKA level” value [1] was “markedly reduced” and the “cardiac BCAA catabolic activities post-TAC” value (BCKD subunit E1α [2]; intragastric, six weeks) was “enhanced”. For the same compound, the “BCKDK mediated E1α phosphorylation” value (BCKD subunit E1α [2]; post-TAC heart, BT2 40 mg/kg/day 6 weeks vs vehicle) was “significantly reduced”, the BCKDK protein expression (BCKD subunit E1α [2]; post-TAC heart, BT2 vs vehicle) was “insignificant effect” and the “phosphorylation of BCKD subunit E1α in heart” value (BCKD subunit E1α [3]) was “significantly reduced”. The “plasma BCAA/BCKA levels” value [4] was “lowers”, the “cardiac intra-tissue concentrations of BCAA and BCKA” value [5] was “significant reduced” and the “enhancement of cardiac BCKD activity” value (BCKD; PP2Cm-KO mice) was about 9 fold. For the same compound, the “enhancement of cardiac BCKD activity” value (BCKD; wild-type mice) was about 7 fold.
